The values below come from patent US11834496B2, “Composition of a drug carrier, pharmaceutical composition thereof, preparation method and use method thereof” (EOS BIOMATERIALS INC., priority 2020, dated 2023).

A short description of the data set: Drug release rate test of pharmaceutical composition (dialysis bag in PBS, HPLC). It is filed as physicochemical. The following applies: 37° C.; for drug release rate: gentamicin 50 mg, 200 ml PBS. As to the method: In this test, a total of 3 ml solutions of the first and second mixtures (the weight ratio of sodium alginate:tricalcium phosphate:methylcellulose:sodium hyaluronate:calcium chloride was 36:36:15:80:20) and 50 mg of gentamicin were mixed to prepare a pharmaceutical composition containing gentamicin to be an experimental group. Then, the pharmaceutical composition containing gentamicin was placed in a dialysis bag. At the same time, 50 mg of gentamicin was dissolved in 3 ml of water as a control group.
Next, two 500 ml beaker were respectively added with 200 ml of phosphate buffered saline (PBS) solution. The prepared solutions of the experimental group and control group were respectively placed in dialysis bags, which were then placed in the PBS solutions. After that, the beakers, containing the dialysis bag and the PBS solution, were slightly shaken at 37° C. to allow the release of the drug from the dialysis bag to the PBS solution. In the drug release period, the PBS solution of the experimental and control groups are sampled at 15 minutes, 30 minutes, 45 minutes, 60 minutes, 75 minutes, 90 minutes, 105 minutes, 120 minutes, 150 minutes, 180 minutes, 1 day, 2 days, 3 days, 4 days, 5 days, 6 days, and 7 days, from the time start shaking. The sampled volume of the PBS solutions in beakers was 1 mL, and 1 mL of fresh PBS solution was added back to the sampled beakers. The concentrations of the gentamicin released in the PBS solution from the dialysis bag were analyzed by high performance liquid chromatography (HPLC).

gentamicin: for the setting “PBS, in less than 30 hours”, the “cumulative release amount of the gentamicin released in the PBS solution” value is about 100%. Besides, the drug release rate entry is listed as “much faster” (within 180 hours, relative to experimental group) and “much faster” (within the first 3 hours).
